Source: patent publication US10111877B2, “Modulators of androgen synthesis” (Tangent Reprofiling Limited, priority 2012, dated 2018)
Where two headings read alike, the source gives them in different places.

What was measured:
MCF7 cells = experiment: Cell growth inhibition, lysed cell LDH assay, breast cancer cell line; assay type: cell-based
Procedure: (§1) To determine whether Risperidone could be effective in inhibiting growth of cancer cells overexpressing HSD10, a lysed cell LDH assay was conducted using cells taken from a prostate cancer cell line, a lung cancer cell line, a breast cancer cell line, an ovarian cancer cell line, each of which was known to overexpress HSD10, and a non-cancerous cell line.
(§2) After incubation in the drug treatment for 96 hours at 37° C., 5% CO2, the supernatant was removed from all wells of cells, and cells washed with 200 μL PBS.
(§3) After removal of the PBS from the cell cultures described above, cell number was determined using a lysed cell LDH assay. Cells were lysed with 0.9% Triton-X in PBS for 2 hours at 37° C., 5% CO2 and 50 μL of this cell lysate was transferred to a fresh 96 well plate. About 50 μL of CytoTox 96 assay reagent was added to the transferred cell lysate and this mixture was incubated at room temperature in the dark for 20 minutes. After the addition of 50 μL stop reagent, the optical absorbance was determined for each incubated mixture at 492 nm. […] The mean and standard error was calculated from at least 3 wells.

VERO cells = experiment: Cell growth inhibition, lysed cell LDH assay, non-cancerous cell line; assay type: cell-based
Procedure: as §1, §2, §3

OVCAR-3 cells = experiment: Cell growth inhibition, lysed cell LDH assay, ovarian cancer cell line; assay type: cell-based
Procedure: as §1, §2, §3

PC-3M-luc cells = experiment: Orthotopic prostate tumor mouse xenograft model; conditions: single drug
Procedure: Immunodeficeint male mice (athymic nude mice) were acclimated to the laboratory for at least one week prior to implantation of tumor. PC-3M-luc cells obtained directly from in vitro culture were then injected into the prostate on Day 0. Animals were divided into six groups of 12 mice each. Primary tumor size and metastases were assessed by bioluminescence measurements on day 6, 13, 20, 27, 34, and 40. On day 7 a five week treatment regime was initiated. Both individual drug and high and low dose combination were examined by administering the drugs twice daily on an individual body weight basis using a dose escalation protocol (Table 7). If tumors grew above a pre-determined level, or mice lost more than 10% of bodyweight, they were culled. The primary tumor was excised, weighed and measured. Individual organs were imaged to assess metastatic burden.

BxPC-3 cells = experiment: Resazurin-based cell viability assay, pancreatic cancer cell line; conditions: Homo sapiens, BXPC-3, read-out: growth inhibition of Bx-PC3 cells
Procedure: To determine whether Risperidone alone, or in combination with CLA could inhibit cell growth of cells taken from a pancreatic cancer cell line overexpressing HSD10, a resazurin-based cell viability assay was conducted on Bx-PC3 cells.
BxPC-3 cells are from a cell line derived from a human pancreatic adenocarcinoma and are known to overexpress HSD10. BxPC-3 cells were seeded at a density of 4,000 cells per well in a 384 well plate, and incubated at 37° C., 5% CO2 for 24 hours in standard growth media (RPMI nutrient media, 5% heat-inactivated Fetal Calf Serum, 2 mM L-Glutamine). The media was then removed by pipette and replaced with 50 μL BxPC-3 treatment media comprising 125 μM fatty acid-free BSA, 2 mM L-Glutamine and one of the following drug treatments: 0.1 μM, 2 μM, or 50 μM Risperidone; 0.1 μM, 2 μM, or 50 μM CLA; or 0.1 μM, 2 μM, or 50 μM of Risperidone and CLA (in equimolar amounts). After incubation in the drug treatment for 72 hours at 37° C., 5% CO2, viable cell number was determined using a resazurin-based cell viability assay (PRESTOBLUE®; Invitrogen, Carlsbad, Calif.). To each well, 7 μL of PRESTOBLUE® reagent was added and the plates incubated for 60 minutes at 37° C., 5% CO2. After incubation, the fluorescence intensity of each well was determined using a microplate reader by excitation and 570 nm and recording emission at 600 nm. The percentage of viable cell number was calculated by normalizing the experimental fluorescence intensity, where 100% is set to cells receiving no drug treatment (cells metabolizing at optimal rate), and 0% is set to readings from cells treated with Paclitaxel (cells not metabolizing at all due to their destruction by anti-cancer drug). A value under 50% could be considered a useful indication of potential efficacy.

PC3 cells = experiment: Cell growth inhibition, lysed cell LDH assay, prostate cancer cell line; assay type: cell-based
Procedure: To determine whether Risperidone could be effective in inhibiting growth of cancer cells overexpressing HSD10, a lysed cell LDH assay was conducted using cells from a PC3 cell line.
(§4) PC3 cells are from a cell line derived from a hormone refractory prostate cancer and are known to overexpress HSD10. […] Cells line tests were carried out in presence and absence of testosterone for comparison. After incubation in the drug treatment for 96 hours at 37° C., 5% CO2, the supernatant was removed from all wells of cells, and cells washed with 200 μL PBS.
as §3, with “PBS,” for “PBS from the cell cultures described above,”, “assay (CytoTox 96 Non-radioactive cytotoxicity assay (LDH Assay); Promega, Co., Madison Wis.).” for “assay.”
To determine the optimal concentration of Risperidone and CLA necessary to inhibit cell growth, a lysed cell LDH assay was conducted using various concentration of Risperidone and CLA. PC3 cells were cultured and a lysed cell LDH assay was conducted as described above, except that the various drug treatments evaluated contained either 0 μM, 12.5 μM, 25 μM, or 50 μM Risperidone in combination with 0 μM, 6.25 μM, 12.5 μM, 25 μM, 50 μM, or 100 μM CLA (see Table 3).
as §3

A549 cells = experiment: Cell growth inhibition, lysed cell LDH assay, lung cancer cell line; assay type: cell-based
Procedure: To determine whether Risperidone alone, or in combination with CLA could inhibit cell growth of cells taken from a lung cancer cell line overexpressing HSD10, A549 cells were seeded at a density of 2,000 cells per well in a 96 well plate, and incubated at 37° C., 5% CO2 for 48 hours in standard growth media (DMEM nutrient media, 10% Fetal Calf Serum, 2 mM L-Glutamine). The media was then removed by pipette and replaced with the appropriate drug treatment as follows: 50 μM Risperidone in A459 treatment media (DMEM nutrient media, 125 uM fatty acid free BSA, 2 mM L-Glutamine); 50 μM CLA in A459 treatment media; 50 μM Risperidone and 50 μM CLA in A459 treatment media; 50 μM Risperidone and 1 μM Testosterone in A459 treatment media; 50 μM Risperidone, 50 μM CLA, and 1 μM Testosterone in A459 treatment media. After incubation in the drug treatment for 96 hours at 37° C., 5% CO2, the supernatant was removed from all wells of cells, and cells washed with 200 μL PBS.
After removal of the PBS from the cell cultures described above, cell number was determined using a lysed cell LDH assay. Cells were lysed with 0.9% Triton-X in PBS for 2 hours at 37° C., 5% CO2 and 50 μL of this cell lysate was transferred to a fresh 96 well plate. About 50 μL of CytoTox 96 assay reagent was added to the transferred cell lysate and this mixture was incubated at room temperature in the dark for 20 minutes. After the addition of 50 μL stop reagent, the optical absorbance was determined for each incubated mixture at 492 nm. The percentage cell number was calculated by normalizing the experimental counts, where 100% is set to cells receiving no drug treatment, and 0% is set to readings from wells containing no cells. The mean and standard error was calculated from at least 3 wells.

HSD10 = biological target: T1, HSD10 (Homo sapiens, UniProt Q99714); experiment: HSD10 Enzyme Inhibition Assay; assay type: biochemical; conditions: 50 μM drug
T1 construct: endogenous in cells; host or cells: PC3 cells
T1 sequence (Q99714 1-261): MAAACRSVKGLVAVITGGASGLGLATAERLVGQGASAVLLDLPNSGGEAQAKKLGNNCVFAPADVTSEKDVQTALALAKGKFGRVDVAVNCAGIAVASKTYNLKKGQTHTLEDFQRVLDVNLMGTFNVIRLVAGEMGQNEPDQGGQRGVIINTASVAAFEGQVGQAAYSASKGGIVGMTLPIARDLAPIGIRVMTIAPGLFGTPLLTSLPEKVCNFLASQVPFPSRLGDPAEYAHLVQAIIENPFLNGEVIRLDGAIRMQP
Procedure: An HSD10 inhibition assay was performed to determine the effect of several anti-psychotics on enzyme activity.
as §4
as §3, with “PBS,” for “PBS from the cell cultures described above,”, “assay (CytoTox 96 Non-radioactive cytotoxicity assay (LDH Assay); Promega, Co., Madison Wis.).” for “assay.”

[1] = 50 μM Risperidone and/or 50 μM CLA, 1 μM Testosterone (T) where added, 96 hours

SMILES: Cc1nc2n(c(=O)c1CCN1CCC(c3noc4cc(F)ccc34)CC1)CCCC2 [Risperidone, 3-[2-[4-(6-fluoro-1,2-benzoxazol-3-yl)piperidin-1-yl]ethyl]-2-methyl-6,7,8,9-tetrahydropyrido[1,2-a]pyrimidin-4-one]
- Percentage of Lysed Cells (MCF7 cells; [1]): 35 ± 2.4%
- inhibition at 50 µM (MCF7 cells; Homo sapiens, 50 μM): ~65%
- effect on growth of cells from the non-cancerous cell line VERO (VERO cells; 50 μM): neither Risperidone nor CLA had any measurable effect
- Percentage of Lysed Cells (VERO cells; VERO, 50 μM Risperidone and/or 50 μM CLA, 1 μM Testosterone (T) where added, 96 hours): 94 ± 1.7%
- Percentage of Lysed Cells (OVCAR-3 cells; [1]): 64 ± 0.4%
- inhibition at 50 µM (OVCAR-3 cells; Homo sapiens, 50 μM): ~35%
- body weight throughout the study (PC-3M-luc cells; by Day 40): maintained a constant weight
- animal loss (PC-3M-luc cells; by day 34): about 10%
- Tumor Growth Inhibition (PC-3M-luc cells; calculated on Day 34, dosing per Table 7): 16%
- Animal Survival (overall survivorship) (PC-3M-luc cells; day 40, dosing per Table 7): 33%
- inhibition at 50 µM (BxPC-3 cells): ~60%
- Percentage of Lysed Cells (PC3 cells; 12.5 μM Risperidone, 0 μM CLA (Table 4)): 81 ± 3.6%
- Percentage of Lysed Cells (PC3 cells; 12.5 μM of each drug, 96 hours, 100% = no drug treatment (Table 3)): 102 ± 5.4%
- Percentage of Lysed Cells (PC3 cells; 25 μM Risperidone, 0 μM CLA (Table 4)): 73 ± 2.2%
- Percentage of Lysed Cells (PC3 cells; 25 μM of each drug, 96 hours, 100% = no drug treatment (Table 3)): 93 ± 0.51%
- Percentage of Lysed Cells (PC3 cells; 50 μM Risperidone, 0 μM CLA (Table 4)): 79 ± 0.7%
- Percentage of Lysed Cells (PC3 cells; 50 μM of each drug, 96 hours, 100% = no drug treatment (Table 3)): 52 ± 0.22%
- inhibition at 50 µM (PC3 cells; Homo sapiens, PC-3, 50 μM): ~50%
- Percentage of Lysed Cells (PC3 cells; PC3, 50 μM Risperidone and/or 50 μM CLA, 1 μM Testosterone (T) where added, 96 hours (Table 5)): 52 ± 1.7%
- growth inhibition of PC3 cells (PC3 cells; either 25 μM or 50 μM Risperidone alone (Table 4 experiment)): 20-30%
- Percentage of Lysed Cells (A549 cells; A549, 50 μM Risperidone and/or 50 μM CLA, 1 μM Testosterone (T) where added, 96 hours): 38 ± 1.9%
- inhibition at 50 µM (A549 cells; Homo sapiens, A549, read-out: growth inhibition of A549 cells): > 60%
- Oxidative Activity Rate (HSD10): 1.0 µM/min
- Reductive Activity Rate (HSD10): 3.3 µM/min
- inhibition at 50 µM (HSD10; read-out: Oxidative Activity Drug Inhibition): 88%
- inhibition at 50 µM (HSD10; read-out: Reductive Activity Drug Inhibition): 63%
